The values that follow come from patent publication US10758534B2 (Vertex Pharmaceuticals Incorporated, priority 2014, dated 2020).

Where only a bound is given, the exact number is not on record here.

For the first assay, the target named is T1, F508del (Homo sapiens, UniProt P13569, DEL508-508).
T1 construct: expressed in transfected cells
T1 sequence (P13569 with tags, fused parts or gaps DEL508-508): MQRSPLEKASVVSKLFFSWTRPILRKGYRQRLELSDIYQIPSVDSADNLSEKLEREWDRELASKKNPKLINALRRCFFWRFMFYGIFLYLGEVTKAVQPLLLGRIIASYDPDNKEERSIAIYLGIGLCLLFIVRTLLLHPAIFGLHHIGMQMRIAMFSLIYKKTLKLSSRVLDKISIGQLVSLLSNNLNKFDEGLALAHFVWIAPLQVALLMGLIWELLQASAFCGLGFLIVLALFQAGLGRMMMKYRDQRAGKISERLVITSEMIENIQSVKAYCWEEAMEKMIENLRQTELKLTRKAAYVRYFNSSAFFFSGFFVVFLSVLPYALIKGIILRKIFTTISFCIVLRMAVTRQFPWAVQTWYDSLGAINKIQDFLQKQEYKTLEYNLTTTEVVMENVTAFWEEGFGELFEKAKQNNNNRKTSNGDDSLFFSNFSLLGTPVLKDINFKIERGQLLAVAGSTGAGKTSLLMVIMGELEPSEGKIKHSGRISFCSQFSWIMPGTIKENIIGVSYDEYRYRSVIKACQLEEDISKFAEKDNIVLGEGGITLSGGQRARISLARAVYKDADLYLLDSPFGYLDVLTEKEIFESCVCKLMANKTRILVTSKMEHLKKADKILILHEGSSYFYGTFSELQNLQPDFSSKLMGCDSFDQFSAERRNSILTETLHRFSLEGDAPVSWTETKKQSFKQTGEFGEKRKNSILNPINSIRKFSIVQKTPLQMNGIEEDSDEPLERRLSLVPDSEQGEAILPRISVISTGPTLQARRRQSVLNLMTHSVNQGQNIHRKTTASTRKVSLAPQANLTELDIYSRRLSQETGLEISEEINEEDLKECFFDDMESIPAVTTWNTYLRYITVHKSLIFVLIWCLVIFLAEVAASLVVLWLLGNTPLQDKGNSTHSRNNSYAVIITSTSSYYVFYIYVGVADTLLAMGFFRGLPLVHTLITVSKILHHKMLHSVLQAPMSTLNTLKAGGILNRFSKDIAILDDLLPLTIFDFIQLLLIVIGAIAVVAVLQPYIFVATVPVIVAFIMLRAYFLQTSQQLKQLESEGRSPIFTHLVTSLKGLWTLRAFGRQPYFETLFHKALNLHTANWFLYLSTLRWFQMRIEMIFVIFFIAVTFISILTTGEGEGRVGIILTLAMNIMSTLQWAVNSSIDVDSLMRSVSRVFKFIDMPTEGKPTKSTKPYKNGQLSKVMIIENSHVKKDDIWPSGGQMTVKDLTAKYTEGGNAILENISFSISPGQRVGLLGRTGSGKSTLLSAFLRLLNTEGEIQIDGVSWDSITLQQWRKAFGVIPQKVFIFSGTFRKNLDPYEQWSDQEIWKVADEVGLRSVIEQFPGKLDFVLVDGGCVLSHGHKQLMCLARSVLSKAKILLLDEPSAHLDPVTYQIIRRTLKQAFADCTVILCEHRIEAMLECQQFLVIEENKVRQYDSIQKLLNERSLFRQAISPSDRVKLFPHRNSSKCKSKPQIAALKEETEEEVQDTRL
The assay is described as follows: Protocol 2: FRET membrane potential optical assay (VIPR), identification of correction compounds.
Details: not given
The class given is cell-based. In outline: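 NIH3T3 mouse fibroblasts stably expressing F508del-CFTR incubated with compound 16 h at 37 °C in serum-free medium, then loaded with CC2-DMPE/DiSBAC2(3) FRET dyes. Channel activated with 10 μM forskolin plus 20 μM genistein in Cl⁻-free (gluconate) bath; depolarisation from Cl⁻ efflux read on VIPR II.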
Turning to `[2H]C1([2H])[C@@H](C)CC(C)(C)N1c1nc(-c2cc(F)cc(OCC(C)C)c2)ccc1C(=O)NS(=O)(=O)c1ccccc1` [Compound 2560, N-(benzenesulfonyl)-2-[(3S)-2,2-dideuterio-3,5,5-trimethyl-pyrrolidin-1-yl]-6-(3-fluoro-5-isobutoxy-phenyl)pyridine-3-carboxamide], the EC30 was less than 3000 nM.

Still in this assay, the particulars now being: F508del CFTR modulator activity; compounds of Table 1; read-out: EC30.
In the case of `CC1CN(c2ncccc2C(=O)NS(=O)(=O)c2cccc(Oc3ccccc3C(C)(C)C)n2)C(C)(C)C1` (stereo not drawn) [Compound 2083, N—[[6-(2-tert-butylphenoxy)-2-pyridyl]sulfonyl]-2-(2,2,4-trimethylpyrrolidin-1-yl)pyridine-3-carboxamide], the EC30 was less than 3000 nM.

As to `C[C@@H]1CN(c2nc(N3CCOC(C)(C)C3)c(F)cc2C(=O)NS(=O)(=O)c2cccc(N)n2)C(C)(C)C1` [Compound 2586, N-[(6-amino-2-pyridyl)sulfonyl]-6-(2,2-dimethylmorpholin-4-yl)-5-fluoro-2-[(4S)-2,2,4-trimethylpyrrolidin-1-yl]pyridine-3-carboxamide], the EC30 was in the range of 3000 to 10000 nM.

Take `C[C@@H]1CN(c2ncccc2C(=O)NS(=O)(=O)N2CC[C@@H](NCc3ccc(F)c(OC(F)(F)F)c3)C2)C(C)(C)C1` [Compound 2680]: the EC30 is 3000 to 10000 nM.

For `CC(C)CCN(C)c1cccc(S(=O)(=O)NC(=O)c2cccnc2N2CC(C)CC2(C)C)n1` (stereo not drawn) [Compound 2346, N—[[6-[isopentyl(methyl)amino]-2-pyridyl]sulfonyl]-2-(2,2,4-trimethylpyrrolidin-1-yl)pyridine-3-carboxamide], the EC30 was less than 3000 nM.

Turning to `CC1CN(c2ncccc2C(=O)NS(=O)(=O)c2cccc(OCC(C)C3CCCCC3)n2)C(C)(C)C1` (stereo not drawn) [Compound 2019, N—[[6-(2-cyclohexylpropoxy)-2-pyridyl]sulfonyl]-2-(2,2,4-trimethylpyrrolidin-1-yl)pyridine-3-carboxamide], the EC30 is less than 3000 nM.

In the case of `CC1CN(c2ncccc2C(=O)NS(=O)(=O)c2cccc(OCc3c(Cl)cccc3Cl)n2)C(C)(C)C1` (stereo not drawn) [Compound 2390, N—[[6-[(2,6-dichlorophenyl)methoxy]-2-pyridyl]sulfonyl]-2-(2,2,4-trimethylpyrrolidin-1-yl)pyridine-3-carboxamide], the EC30 is less than 3000 nM.

Regarding `CC1CN(c2ncccc2C(=O)NS(=O)(=O)c2cccc(N3CCCC3c3ccccc3)n2)C(C)(C)C1` (stereo not drawn) [Compound 2094, N—[[6-(2-phenylpyrrolidin-1-yl)-2-pyridyl]sulfonyl]-2-(2,2,4-trimethylpyrrolidin-1-yl)pyridine-3-carboxamide], the EC30 is less than 3000 nM.

As to `CC1CN(c2ncccc2C(=O)NS(=O)(=O)c2cccc(NCc3cccc(F)c3F)n2)C(C)(C)C1` (stereo not drawn) [Compound 2640, N—[[6-[(2,3-difluorophenyl)methylamino]-2-pyridyl]sulfonyl]-2-(2,2,4-trimethylpyrrolidin-1-yl)pyridine-3-carboxamide], the EC30 is less than 3000 nM.

Take `Cc1cc(-c2ccc(C(=O)NS(=O)(=O)N3CC[C@H](N)C3)c(N3C[C@@H](C)CC3(C)C)n2)ccc1F` [Compound 2472, N-[(3S)-3-aminopyrrolidin-1-yl]sulfonyl-6-(4-fluoro-3-methyl-phenyl)-2-[(4S)-2,2,4-trimethylpyrrolidin-1-yl]pyridine-3-carboxamide]: the EC30 fell in the range of 3000 to 10000 nM.

`CC1CN(c2ncccc2C(=O)NS(=O)(=O)c2cccc(N[C@H](C)C(C)C)n2)C(C)(C)C1` (stereo partly drawn) [Compound 2318, N—[[6-[[(1R)-1,2-dimethylpropyl]amino]-2-pyridyl]sulfonyl]-2-(2,2,4-trimethylpyrrolidin-1-yl)pyridine-3-carboxamide]: the EC30 was less than 3000 nM.

`CC1CN(c2ncccc2C(=O)NS(=O)(=O)c2cccc(OCCc3cccc(F)c3)n2)C(C)(C)C1` (stereo not drawn) [Compound 2740]: the EC30 was less than 3000 nM.

In the case of `CCC(COC)Nc1cccc(S(=O)(=O)NC(=O)c2cccnc2N2CC(C)CC2(C)C)n1` (stereo not drawn) [Compound 2221, N—[[6-[1-(methoxymethyl)propylamino]-2-pyridyl]sulfonyl]-2-(2,2,4-trimethylpyrrolidin-1-yl)pyridine-3-carboxamide], the 30% effect concentration (EC30) is 3000 to 10000 nM.

On to `CC1CN(c2ncccc2C(=O)NS(=O)(=O)c2cccc(OCc3ccc(C(F)(F)F)nc3)n2)C(C)(C)C1` (stereo not drawn) [Compound 2476, N—[[6-[[6-(trifluoromethyl)-3-pyridyl]methoxy]-2-pyridyl]sulfonyl]-2-(2,2,4-trimethylpyrrolidin-1-yl)pyridine-3-carboxamide], for which the EC30 is less than 3000 nM.

As to `CC1CN(c2ncccc2C(=O)NS(=O)(=O)c2cccc(Nc3ccc(NC(=O)OC(C)(C)C)cc3)n2)C(C)(C)C1` (stereo not drawn) [Compound 2743], the EC30 was less than 3000 nM.

As to `Cc1cccc(-c2ccc(C(=O)NS(=O)(=O)N3CC[C@H](N)C3)c(N3C[C@@H](C)CC3(C)C)n2)c1C` [Compound 2225, N-[(3S)-3-aminopyrrolidin-1-yl]sulfonyl-6-(2,3-dimethylphenyl)-2-[(4S)-2,2,4-trimethylpyrrolidin-1-yl]pyridine-3-carboxamide], the EC30 was in the range of 3000 to 10000 nM.

Staying with this assay, now noted: Table 3; compounds of Table 1 as modulators of CFTR activity; protocol not stated.
Turning to `COCC1CCN(c2nc(-c3ccc(OC(C)C)nc3)ccc2C(=O)NS(=O)(=O)c2cccc(N)n2)CC1` [Compound 606, N-[(6-amino-2-pyridyl)sulfonyl]-6-(6-isopropoxy-3-pyridyl)-2-[4-(methoxymethyl)-1-piperidyl]pyridine-3-carboxamide], the EC30 result is “++ (“++” means between 3 uM and 10 uM)”.

With `CC(C)COc1cc(F)cc(-c2ccc(C(=O)NS(=O)(=O)c3cccc(N)n3)c(N3CCC[C@@H](c4ccccc4)C3)n2)c1` [Compound 684, N-[(6-amino-2-pyridyl)sulfonyl]-6-(3-fluoro-5-isobutoxy-phenyl)-2-[(3S)-3-phenyl-1-piperidyl]pyridine-3-carboxamide], the 30% effect concentration (EC30) entry is “+++ (“+++” means <3 uM)”.

As to `CCOc1ccc(-c2ccc(C(=O)NS(=O)(=O)c3cc[nH]n3)c(Oc3c(C)cc(C)cc3C)n2)cc1` [Compound 190, 6-(4-ethoxyphenyl)-N-(1H-pyrazol-3-ylsulfonyl)-2-(2,4,6-trimethylphenoxy)pyridine-3-carboxamide], the EC30 result is on record as “+++ (“+++” means <3 uM)”.

For `CCc1cccc2c1CN(Cc1c(C)cc(C)cc1C)C2C(=O)NS(=O)(=O)c1cccc(N)c1` (stereo not drawn) [Compound 30, N-(3-aminophenyl)sulfonyl-4-ethyl-2-[(2,4,6-trimethylphenyl)methyl]isoindoline-1-carboxamide], the EC30 result was “+++ (“+++” means <3 uM)”.

On to `Cc1cccc(C)c1Cn1nc(-c2ccc(N(C)C)cc2)cc1C(=O)NS(=O)(=O)c1ccccc1` [Compound 76, N-(benzenesulfonyl)-5-(4-dimethylaminophenyl)-2-[(2,6-dimethylphenyl)methyl]pyrazole-3-carboxamide], for which the 30% effect concentration (EC30) result was “+++ (“+++” means <3 uM)”.

Take `COc1ncc(-c2ccc(C(=O)NS(=O)(=O)c3cccc(N)n3)c(Oc3c(C)cc(C)cc3C)n2)c(OC)n1` [Compound 499, N-[(6-amino-2-pyridyl)sulfonyl]-6-(2,4-dimethoxypyrimidin-5-yl)-2-(2,4,6-trimethylphenoxy)pyridine-3-carboxamide]: the concentration for an effect of 30% (EC30) result is “++ (“++” means between 3 uM and 10 uM)”.

With `CC(C)COc1cc(F)cc(-c2ccc(C(=O)NS(=O)(=O)c3cccc(N)n3)c(N(C)C(C)C3CC3)n2)c1` (stereo not drawn) [Compound 516, N-[(6-amino-2-pyridyl)sulfonyl]-2-[1-cyclopropylethyl(methyl)amino]-6-(3-fluoro-5-isobutoxy-phenyl)pyridine-3-carboxamide], the EC30 entry is “+++ (“+++” means <3 uM)”.

As for `Cc1cc(C)c(Cn2c(C(=O)NS(=O)(=O)c3cccc(N)c3)nc3ccccc32)c(C)c1` [Compound 71, N-(3-aminophenyl)sulfonyl-1-[(2,4,6-trimethylphenyl)methyl]benzimidazole-2-carboxamide], the EC30 result was “+++ (“+++” means <3 uM)”.

On to `Cc1cc(C)c(Oc2nc3c(cc2C(=O)NS(=O)(=O)c2cccc(N)n2)CCCC3(C)C)c(C)c1` [Compound 182, N-[(6-amino-2-pyridyl)sulfonyl]-8,8-dimethyl-2-(2,4,6-trimethylphenoxy)-6,7-dihydro-5H-quinoline-3-carboxamide], for which the concentration for an effect of 30% (EC30) entry is listed as “+++ (“+++” means <3 uM)”.

Take `Cc1cc(C)c(CN2CCc3ccccc3CC2C(=O)NS(=O)(=O)c2cccc(N3CCOCC3)n2)c(C)c1` (stereo not drawn) [Compound 669, N-[(6-morpholino-2-pyridyl)sulfonyl]-3-[(2,4,6-trimethylphenyl)methyl]-1,2,4,5-tetrahydro-3-benzazepine-4-carboxamide]: the EC30 entry is “+++ (“+++” means <3 uM)”.

`CC(C)COc1ccc(F)c(-c2ccc(C(=O)NS(=O)(=O)c3ccn[nH]3)c(N3[C@H](C)CC[C@@H]3C)n2)c1` [Compound 681, 2-[(2S,5R)-2,5-dimethylpyrrolidin-1-yl]-6-(2-fluoro-5-isobutoxy-phenyl)-N-(1H-pyrazol-5-ylsulfonyl)pyridine-3-carboxamide]: the EC30 result is on record as “+++ (“+++” means <3 uM)”.

In the case of `COc1cccc(-c2ccc(C(=O)NS(=O)(=O)c3cccc(N)n3)c(Oc3c(C)cc(C)cc3C)n2)c1OC` [Compound 485, N-[(6-amino-2-pyridyl)sulfonyl]-6-(2,3-dimethoxyphenyl)-2-(2,4,6-trimethylphenoxy)pyridine-3-carboxamide], the EC30 result is “+++ (“+++” means <3 uM)”.

For `CC(C)COc1cccc(-c2ccc(C(=O)NS(=O)(=O)c3cccc(N)n3)c(N3CC(C)CC3(C)C)n2)c1` (stereo not drawn) [Compound 695, N-[(6-amino-2-pyridyl)sulfonyl]-6-(3-isobutoxyphenyl)-2-(2,2,4-trimethylpyrrolidin-1-yl)pyridine-3-carboxamide], the EC30 result was “+++ (“+++” means <3 uM)”.

In the case of `C[C@@H]1CC[C@H](C)N1c1nc(-c2ccc(Cl)cc2)ccc1C(=O)NS(=O)(=O)c1cccc(N)n1` [Compound 459, N-[(6-amino-2-pyridyl)sulfonyl]-6-(4-chlorophenyl)-2-[(2S,5R)-2,5-dimethylpyrrolidin-1-yl]pyridine-3-carboxamide], the EC30 entry is recorded as “+++ (“+++” means <3 uM)”.

In general, EC30 refers to the concentration needed for an effect of 30%.
